{"source": "patent US6126909A", "about": "“Process and apparatus for the production of BI-212 and a use thereof” (Arch Development Corporation, priority 1999, dated 2000)", "key": {"[1]": {"test_system": "microscopic carcinoma", "conditions": "in vivo; cited from earlier work"}, "[2]": {"test_system": "NIH:OVCAR-3 cells (spheroids)", "test": "In vitro irradiation survival, spheroids", "format": "cell-based, human", "conditions": "OVCAR-3 spheroids", "protocol": "(§1) In vitro studies were carried out using three well known cell lines, the cells from which were exposed to radiation from: (1) an X-ray source; (2) P-32 chromic phosphate; and (3) Bi-212 chloride. The three cell lines that were used are V-79, which is a Chinese hamster lung fibroblast, Ehrlich-Lettre Ascites carcinoma (ATCC CCL 77), which is an ascites producing -tumor, and NIH:OVCAR-3 (ATCC HTB 161), which is a human ovarian adenocarcinoma. These well known cell lines are predictive of what happens in vivo. The cells were grown as monolayers and into spheroid formations and subsequently irradiated, as described herein.\n(§2) The V-79 cells were maintained under exponential growth conditions in minimal essential medium (MEM) supplemented with 10 percent fetal bovine serum. The Ehrlich-Lettre Ascites carcinoma cells were maintained in 90 percent NCTC 109 supplemented with 10 percent fetal bovine serum. The NIH:OVCAR-3 cells were maintained in RPMI 1640 and 10 percent fetal bovine serum.\nTo initiate the formation of the spheroids, cells at a concentration of about 500,000 cells per flask were seeded onto petri dishes base-cooked with 1 percent agar MEM without serum. After spheroids having a size of about 20 micrometers (μm) formed, the spheroids were transferred to spinner bottles and maintained for two to three weeks at a temperature of 37° C. in a CO2 incubator until they grew to 10 to 1000 μm. Prior to irradiation, the spheroids were sized and separated using a spheroid separation column.\n(§3) Cells from each of the cell lines were irradiated by subjecting the cells to X-ray radiation, P-32, and Bi-212. The X-ray source that was used is a General Electric 250 kvp Maxitron, 26 […] (mA) (HVL 1.5 mm Cu) operated at a dose rate of 1.11 Greys per minute (Gy/min). The cells, in both monolayer and spheroid form were exposed at room temperature and then immediately plated for survival.\n(§4) Cells in both monolayer and spheroid were exposed to P-32 chromic phosphate. The radiation dose to each sample was calculated as: […]\n(§5) After exposure, the cells were washed in phosphate-buffered saline (PBS) and immediately plated for survival.\nThe cell lines were also irradiated using Bi-212. […] The filter was purged with 1 ml of distilled deionized water, and the radioactivity was assayed using a calibrated 3×3-in. […]\n(§6) Cells were exposed over a period of four hours. The dose (D) per microCurie was calculated and corrected for decay as follows: [formula] where V=volume in milliliters, and […]\n(§7) Following plating, survival measurements were taken for each of the irradiated cell samples. […] The plates were then stained with crystal violet and colonies greater than 50 cells were scored. The surviving fraction was then determined.\nIntrinsic radiosensitivity (Do) was calculated from the survival curves. […]"}, "[3]": {"test_system": "V-79 cells", "test": "In vitro irradiation survival (clonogenic), monolayer", "format": "cell-based, Chinese hamster", "conditions": "V-79 monolayer", "protocol": "as §1, §2, §3, §4, §5\n(§8) The cell lines were also irradiated using Bi-212. Bismuth-212 was eluted from a generator as described in the aforementioned patent to Atcher et al., which was a cation-exchange column supporting Ra-224, with 1 ml of 0.15 N HI, and the generator was purged with 2 ml of distilled deionized water. […] The filter was purged with 1 ml of distilled deionized water, and the radioactivity was assayed using a calibrated 3×3-in. […]\nas §6, §7\n(§9) Intrinsic radiosensitivity (Do) was calculated from the survival curves. […] Relative biological effectiveness (RBE) was determined as the ratio of the absorbed dose of X-ray to that of alpha radiation to produce the same degree of biological effect."}, "[4]": {"test_system": "NIH:OVCAR-3 cells", "test": "In vitro irradiation survival (clonogenic), monolayer", "format": "cell-based, human", "conditions": "OVCAR-3 monolayer", "protocol": "as §1, §2, §3, §4, §5, §8, §6, §7, §9"}, "[5]": {"test_system": "microscopic disease (ovarian carcinoma)", "conditions": "stage I and stage II patients; cited from earlier work"}, "[6]": {"conditions": "dose increment reducing survival to 37 percent"}}}
{"smiles": "[211At]", "note": "[At-211, astatine-211]", "values": [{"measurement": "Treatment and eradication of microscopic carcinoma", "setting": "[1]", "value": "effective in the treatment and eradication of microscopic carcinoma"}]}
{"smiles": "O=[32P]([O-])([O-])[O-].[Cr+3]", "note": "[P-32 chromic phosphate, chromic phosphate (P-32), reference compound]", "values": [{"measurement": "D0 (intrinsic radiosensitivity)", "setting": "[2]; dose to 37 percent survival", "value": 1.1, "unit": "Gy"}, {"measurement": "Relative biological effectiveness (RBE)", "setting": "[2]; relative to X-ray", "value": 1.07}, {"measurement": "D0 (intrinsic radiosensitivity)", "setting": "[3]; [6]", "value": 1.25, "unit": "Gy"}, {"measurement": "Relative biological effectiveness (RBE)", "setting": "[3]; relative to X-ray", "value": 1.63}, {"measurement": "D0 (intrinsic radiosensitivity)", "setting": "[4]; [6]", "value": 1.40, "unit": "Gy"}, {"measurement": "Relative biological effectiveness (RBE)", "setting": "[4]; relative to X-ray", "value": 1.43}, {"measurement": "Five-year survival rate", "setting": "[5]", "value": 81, "unit": "%"}]}
{"smiles": "[212Pb]", "note": "[Pb-212, lead-212]", "values": [{"measurement": "Treatment and eradication of microscopic carcinoma", "setting": "[1]", "value": "effective in the treatment and eradication of microscopic carcinoma"}]}
